{"source": "patent US5912258A", "about": "“Thiadiazoleamide derivative and anti-ulcer drug” (Shiseido Co., Ltd., priority 1998, dated 1999)", "key": {"[1]": {"test": "MTT: Cell Damaging and Protecting Effect Test", "assay_type": "cell-based, male Japanese White rabbit", "details": "rabbit, gastric mucosa cells, 10^-4 M, smaller value is better, read-out: MTT: cell damaging rate", "excerpt": "(§1) MTT: Cell Damaging and Protecting Effect Test\n(§2) It is confirmed that there is no toxicity in cell level. Those having toxicity in cell level are inappropriate as an anti-ulcer drug.\n(§3) A male Japanese White rabbit (2.5 to 3 kg) was anesthetized to death by Nembutal™ and, immediately thereafter, its stomach was removed. The greater curvature of the stomach was incised so as to remove the stomach contents therefrom. After the mucosal surface was washed with HBSS (Hank's Balanced Salt Solution), the stomach in ice-cooled HBSS was transferred to a laboratory. Then, after the pyloric antrum was removed, the gastric corpus mucosa was separated by a spatula and then minced into 2 to 3 mm pieces in BME (Basal Medium Eagle). Thereafter, these pieces were shaken at 120 to 130 cycles/minute for 15 minutes at 37° C. in BME 60 ml containing 280 U/ml of dispase and 30 to 50 U/mil of collagenase. Here, the concentration of collagenase was appropriately changed for each lot in view of the state of cells. The pieces were washed twice with EBSS (Earle's Balanced Salt Solution) containing 1 mM of EDTA and then shaken in MEM (Minimum Essential Medium) containing 1 mM of EDTA at 37° C. for 5 minutes. Subsequently, they were shaken in the dispase and collagenase having the same concentrations as those mentioned above for 15 minutes so as to remove the supernatant and then further shaken at 37° C. for 50 to 60 minutes at 120 to 130 cycles/minute. Then, after being washed twice with HBSS, Ham F12 containing 2% of Ultrocer G™ was used to attain the concentration of 1×10^6 cells/ml. Thus formed suspension was dispensed in each well of a 96-well plate by 200 μl. The plate was incubated in the atmosphere composed of 5% CO2 and 95% air at 37° C. for three days so as to attain a confluent state and then subjected to MTT assay.\n(§4) The sample compound was dissolved in DMSO so as to attain a concentration of 10^-2 M and then diluted with HBSS containing 2% of Ultrocer G™ so as to attain a final concentration of 10^-4 M. To each group, which 8 wells were used for, 10 μl of MTT reagent was added immediately after 100 μl of the medium in each well was exchanged for same volume of the resulting solution of the sample compound. After being incubated in an atmosphere composed of 5% CO2 and 95% air at 37° C. for 4 hours, thus formed solution was centrifuged and then its supernatant was discarded. Subsequently, 100 μl of 100% ethanol was added to the residue so as to dissolve MTT formazan. Then, the absorbance (OD: 570 to 630) was measured by a microplate reader. This method utilizes a phenomenon in which MTT is changed to MTT formazan only by mitochondria of living cells so as to change color.\n(§5) The cell damaging or cell protecting effect of the sample compound at the final concentration of 10^-4 M was expressed as cell damaging rate (%) as follows:\n(§6) cell damaging rate (%)={1-(absorbance in sample group/absorbance in control group)}×100\n(§7) Accordingly, the smaller value is better in the cell damaging rate."}, "[2]": {"test_system": "isolated gastric fundic gland", "test": "CAP: Acid Secretion Inhibition Test in vitro ([^14 C]-aminopyrine uptake)", "assay_type": "cell-based, male Japanese White rabbit", "details": "rabbit isolated gastric fundic gland, 10^-5 M, histamine 10^-5 M; for inhibition at 10 µM: Oryctolagus cuniculus, read-out: CAP: Acid secretion inhibitory rate", "procedure": "CAP: Acid Secretion Inhibition Test in vitro (i) Meaning The acid secretion inhibitory activity in a cell level is studied. It can also be used for studying the mechanism of the effect. (ii) Method (ii)-(a) Preparation of isolated gastric gland suspension First, an isolated gastric fundic gland sample was prepared. Namely, a male Japanese White rabbit (2.5 to 3 kg) was anesthetized to death with Nembutal™ and then the abdomen was incised. Immediately thereafter, the stomach was removed and, after its pyloric and cardiac antrum were severed, incised along its greater curvature into two sheets. The gastric contents adhering to the mucosal surface was washed out with ice-cooled PBS (-) and then carefully washed therein. The gastric wall was spread on a cork board with its mucosal surface facing up and the feed and mucus thereon were completely removed with sterile gauze. The mucosa was separated therefrom by a spatula and then collected in ice-cooled PBS (-). After being washed twice with PBS (-), the mucosa was minced into 2-3 mm^3 pieces by scissors. These pieces were further washed twice with a nutrient solution. The nutrient solution comprises 132.4 mM of NaCl, 5.4 mM of KCl, 5 mM of Na2 HPO4 ·12H2 O, 1 mM of NaH2 PO4 ·2H2 O, 1.2 mM of MgSO4, 1 mM of CaCl2, 25 mM of HEPES, 2 mg/ml of glucose, and 1 mg/ml of BSA. Into 70 ml of the nutrient solution containing 1 mg/ml of collagenase, minced mucosal pieces were dispersed and intensely stirred in a conical flask with a stirrer at 37° C. for 40 to 60 minutes. […] The nutrient solution was added to the reaction solution so as to attain the total amount of about 200 ml. After being filtered through a mesh, the suspension was divisionally introduced into 50 ml centrifuge tubes and left for 15 minutes such that gastric fundic gland was deposited. The supernatant was repeatedly removed by an aspirator, dispersed in the nutrient solution, and then left such that the gastric fundic gland was washed three times. At this time, without using a pipette, the suspension was alternately introduced into two centrifuge tubes so as to effect dispersion. The number of cells was counted under microscope and adjusted to 1.6×10^6 cells/ml. (ii)-(b) [^14 C]-aminopyrine uptake test Then [^14 C]-aminopyrine uptake test was performed. After an Eppendorf tube was weighed, 10 μl (final concentration: 10^-5 M) of histamine dissolved in the above-mentioned nutrient solution, 10 μl (final concentration: 10 ^-5 M) of the test compound dissolved in DMSO, and 10 μl (final concentration: 0.05 μCi/ml) of [^14 C]-aminopyrine diluted with the nutrient solution were introduced therein and then 970 μl of the isolated gastric fundic gland suspension prepared above were added thereto. Subsequently, this mixture was shaken at 37° C. for 40 minutes at 125 cycles/minute. After being centrifuged for 30 minutes 200 μl of its supernatant was collected into a mini-vial, while the rest was removed by an aspirator. The gland pellet was completely dried as the tube with its lid being opened was kept for one night in a drying oven at 80° C. and then the weight was determined at room temperature. Then 100 μl of 1N KOH was added thereto an the tube with its lid being closed was treated at 60° C. for 1 to 2 hours so as to dissolve the pellet. Then, the contents thereof were transferred to a mini-vial. Into the mini-vial containing the supernatant or gland pellet, 4 ml of Atomlite™ was added and then the radioactivity was measured by a liquid scintillation counter. Here, after the radioactivity of the gland pellet was corrected by using a sample in which 20 mM of NaSCN was added so as to cancel the hydrogen ion concentration gradient, the integration ratio of aminopyrine specifically trapped by the gland pellet was calculated. This experiment was performed in duplicate. (ii)-(c) Calculation of the accumulation rate of aminopyrine Here, its principle will be briefly explained. […]"}, "stress ulcer formation": {"test_system": "stress ulcer formation", "test": "WIS: Restraint and Water Immersion Stress-Induced Ulcer Inhibition Test", "assay_type": "in vivo, Male Crj:SD or Slc:SD rats", "details": "for WIS: ulcer formation inhibitory rate: rat, 100 mg/kg orally, 7 hours water immersion stress", "procedure": "WIS: Restraint and Water Immersion Stress-Induced Ulcer Inhibition Test (i) Meaning The degree of inhibition of the stress ulcer formation is tested. (ii) Method Male Crj:SD or Slc:SD rats (6 to 7-weeek-old) were fasted overnight, but allowed free access to water. Each group has 5 to 8 of these rats. The sample compound was dissolved or suspended in an aqueous solution of 0.3% sodium carboxymethylcellulose or 0.05% Tween 80 and then was orally administered (100 mg/10 ml/kg). To a control group, the vehicle was administered. 10 minutes later, the rats were placed in a stress cage and immersed to the level of xiphoid process in a water bath (21° C.) for 7 hours. At the end of the stress, the rats were sacrificed by inhalation of ether or carbon dioxide. Then, the stomach of each was removed, inflated by injecting 10 ml of 5% formalin neutral buffer solution, and immersed in 1% formalin neutral buffer solution for 30 minutes or more to be fixed. The stomach was incised along the greater curvature and then the length of each erosion in the glandular portion was determined under dissecting microscope. The sum of the length of erosions per stomach was defined as ulcer index (UI). (iii) Judgment Standard […]"}, "[3]": {"test_system": "gastric corpus mucosa cells", "test": "MTT: Cell Damaging and Protecting Effect Test", "assay_type": "cell-based, male Japanese White rabbit", "details": "rabbit gastric mucosa cells, 10^-4 M, 4 hours; smaller value is better; 100 µM", "excerpt": "as §1, §2, §3, §4, §5, §6, §7"}}}
{"molecule": "CCN(CC)CCSc1nnc(NC(=O)c2ccc(OC(C)(C)C)cc2)s1", "note": "[Example 8, 2-(4-tert-butoxybenzoyl)amino-5-diethylaminoethylthio-1,3,4-thiadiazole]", "values": [{"measurement": "cytotoxicity at 4 h, 100 µM", "setting": "[1]", "result": -11, "unit": "%"}, {"measurement": "inhibition at 10 µM", "setting": "[2]", "result": 99, "unit": "%"}, {"measurement": "WIS: ulcer formation inhibitory rate", "setting": "stress ulcer formation", "result": 66, "unit": "%"}]}
{"molecule": "CCCSc1nnc(NC(=O)c2ccc(OC/C=C(\\C)CCC=C(C)C)cc2)s1", "note": "[Example 16, 2-(4-geranyloxybenzoyl)amino-5-propylthio-1,3,4-thiadiazole]", "values": [{"measurement": "cytotoxicity at 4 h, 100 µM", "setting": "[1]", "result": 14, "unit": "%"}, {"measurement": "WIS: ulcer formation inhibitory rate", "setting": "stress ulcer formation", "result": 53, "unit": "%"}]}
{"molecule": "CC(C)=CCC/C(C)=C/COc1ccc(C(=O)Nc2nnc(SCc3ccccc3)s2)cc1", "note": "[Example 18, 2-(4-geranyloxybenzoyl)amino-5-benzylthio-1,3,4-thiadiazole]", "values": [{"measurement": "cytotoxicity at 4 h, 100 µM", "setting": "[1]", "result": 18, "unit": "%"}, {"measurement": "WIS: ulcer formation inhibitory rate", "setting": "stress ulcer formation", "result": 32, "unit": "%"}]}
{"molecule": "CCN(CC)CCCSc1nnc(NC(=O)c2ccc(OC/C=C(\\C)CCC=C(C)C)cc2)s1", "note": "[Example 11, 2-(4-geranyloxybenzoyl)amino-5-diethylaminopropylthio-1,3,4-thiadiazole]", "values": [{"measurement": "cytotoxicity at 4 h, 100 µM", "setting": "[1]", "result": 48, "unit": "%"}, {"measurement": "inhibition at 10 µM", "setting": "[2]", "result": 100, "unit": "%"}, {"measurement": "WIS: ulcer formation inhibitory rate", "setting": "stress ulcer formation", "result": 65, "unit": "%"}]}
{"molecule": "CC(C)=CCC/C(C)=C/COc1ccc(C(=O)Nc2nnc(SCCCN3CCCCC3)s2)cc1", "note": "[Example 13, 2-(4-geranyloxybenzoyl)amino-5-piperidinopropylthio-1,3,4-thiadiazole]", "values": [{"measurement": "cytotoxicity at 4 h, 100 µM", "setting": "[1]", "result": 41, "unit": "%"}, {"measurement": "inhibition at 10 µM", "setting": "[2]", "result": 100, "unit": "%"}, {"measurement": "WIS: ulcer formation inhibitory rate", "setting": "stress ulcer formation", "result": 51, "unit": "%"}]}
{"molecule": "CC(C)N(CCSc1nnc(NC(=O)c2ccc(C(C)(C)C)cc2)s1)C(C)C", "note": "[Example 5, 2-(4-tert-butylbenzoyl)amino-5-diisopropylaminoethylthio-1,3,4-thiadiazole]", "values": [{"measurement": "cytotoxicity at 4 h, 100 µM", "setting": "[1]", "result": -19, "unit": "%"}, {"measurement": "inhibition at 10 µM", "setting": "[2]", "result": 100, "unit": "%"}, {"measurement": "WIS: ulcer formation inhibitory rate", "setting": "stress ulcer formation", "result": 63, "unit": "%"}]}
{"molecule": "CC(C)=CCC/C(C)=C/COc1ccc(C(=O)Nc2nnc(SCC(C)C)s2)cc1", "note": "[Example 17, 2-(4-geranyloxybenzoyl)amino-5-isobutylthio-1,3,4-thiadiazole]", "values": [{"measurement": "cytotoxicity at 4 h, 100 µM", "setting": "[1]", "result": -4, "unit": "%"}, {"measurement": "WIS: ulcer formation inhibitory rate", "setting": "stress ulcer formation", "result": 46, "unit": "%"}]}
{"molecule": "CC(C)c1ccc(C(=O)Nc2nnc(SCCN(C(C)C)C(C)C)s2)cc1.Cl", "note": "[Example 3, 2-(4-isopropylbenzoyl)amino-5-diisopropylaminoethylthio-1,3,4-thiadiazole hydrochloride]", "values": [{"measurement": "MTT: cell damaging rate", "setting": "[3]", "result": -75, "unit": "%"}, {"measurement": "CAP: Acid secretion inhibitory rate", "setting": "[2]", "result": 104, "unit": "%"}, {"measurement": "WIS: ulcer formation inhibitory rate", "setting": "stress ulcer formation", "result": 96, "unit": "%"}]}
{"molecule": "CCN(CC)CCSc1nnc(NC(=O)c2ccc(OC(C)C)cc2)s1", "note": "[Example 7, 2-(4-isopropyloxybenzoyl)amino-5-diethylaminoethylthio-1,3,4-thiadiazole]", "values": [{"measurement": "cytotoxicity at 4 h, 100 µM", "setting": "[1]", "result": 46, "unit": "%"}, {"measurement": "inhibition at 10 µM", "setting": "[2]", "result": 97, "unit": "%"}, {"measurement": "WIS: ulcer formation inhibitory rate", "setting": "stress ulcer formation", "result": 76, "unit": "%"}]}
{"molecule": "CCN(CC)CCSc1nnc(NC(=O)c2cc(C(C)(C)C)cc(C(C)(C)C)c2)s1", "note": "[Example 6, 2-(3,5-di-tert-butylbenzoyl)amino-5-diethylaminoethylthio-1,3,4-thiadiazol]", "values": [{"measurement": "cytotoxicity at 4 h, 100 µM", "setting": "[1]", "result": 58, "unit": "%"}, {"measurement": "inhibition at 10 µM", "setting": "[2]", "result": 100, "unit": "%"}, {"measurement": "anti-ulcer effect (in words)", "setting": "stress ulcer formation; WIS", "result": "sufficient effects"}, {"measurement": "WIS: ulcer formation inhibitory rate", "setting": "stress ulcer formation", "result": 81, "unit": "%"}]}
{"molecule": "CCN(CC)CCSc1nnc(NC(=O)c2ccc(NC(C)(C)C)cc2)s1", "note": "[Example 9, 2-(4-tert-butyaminobenzoyl)amino-5-diethylaminoethylthio-1,3,4-thiadiazole]", "values": [{"measurement": "cytotoxicity at 4 h, 100 µM", "setting": "[1]", "result": -107, "unit": "%"}, {"measurement": "inhibition at 10 µM", "setting": "[2]", "result": 2, "unit": "%"}, {"measurement": "WIS: ulcer formation inhibitory rate", "setting": "stress ulcer formation", "result": 51, "unit": "%"}]}
